Source: US20220395500A1, “SMALL MOLECULE ACTIVATORS OF INTERFERON REGULATORY FACTOR 3 AND METHODS OF USE THEREOF” (Neuralexo, Inc., priority 2020, published 2022)
Like-named read-outs stand apart in the source and are kept apart here.

Assays:
[1] = THP1-Dual cytotoxicity (Cell Titer Glo, ATP); type: cell-based, human; details: human, THP1-Dual cells, read-out: Thp1 cytotox CC50
Method in brief: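 Human THP1-Dual cells were treated across an 8-point dose-response range. Cytotoxicity was measured in-plate by CellTiter-Glo luminescence, which quantifies ATP as a marker of metabolically active cells, and CC50 was taken as the 50% cytotoxic concentration.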

[2] = system: NF-κB-SEAP reporter in THP1-Dual cells; assay: THP1-Dual NF-κB-SEAP reporter counterscreen; type: cell-based, human; details: Homo sapiens, THP1-Dual, read-out: THP1 NFkB EC50
Experimental: THP1 Dual (InvivoGen) cell suspensions were cultured in RPMI 1640 (Hyclone, Logan, Utah) supplemented with 10% fetal bovine serum (Hyclone), 100 U/mL Normocin (Invivogen), and 50 U/mL PenStrep (Gibco, Dublin, Ireland) between a density of 7·10^5-2·10^6 cells/mL. Every other passage, media was supplemented with 5 U/mL Blasticidin and 100 U/mL Zeocin to maintain the expression constructs. White, flat-bottom 384-well plates (Greiner, Kremsmunster, Austria, 781080) were seeded with 2.5·10^4 cells/well in a total of 50 μL media containing 5 ng/mL phorbolmyristic acid (PMA) using a Matrix WellMate (Thermo Scientific) dispenser. After 48 hours of incubation at 37° C., media was removed using a BioTek ELx405 CW plate washer set to aspirate and wash each well three times with 65 μL 1×PBS. Plates were reloaded with 50 μL media without PMA and treatments added. Lipopolysaccharide in dimethylsulfoxide (DMSO) was transferred to control wells using a HP D300 microdispenser to a final concentration of 313 ng/mL. Compounds from chemical library plates were copied using a Sciclone (Caliper LifeSciences) mounted with a 384-pin transfer tool to obtain a final concentration of 10 μM. After incubation with treatments for 24 hours, 10 μL of supernatant media from each well was transferred into a white, flat-bottom 384-well plate for luminescence readout and a black-walled, clear flat-bottom 384-well plate for absorbance readout.
Specifically, to enable screening of novel chemical entities (NCEs) in a larger screening effort, a robust high-throughput cell-based assay system for primary hit identification of ISRE activators based on the above-mentioned target validation was desired. Human ISRE activity was verified using a THP-1 monocyte line containing the NF-κB-SEAP and IRF-Lucia luciferase dual reporter (THP1-Dual; Invivogen) that features two reporter genes, SEAP (secreted embryonic alkaline phosphatase) and Lucia luciferase, thereby enabling the simultaneous study of the NF-κB and IRF signalling pathways. The Lucia luciferase reporter is under the control of an ISG54 (interferon-stimulated gene) minimal promoter in conjunction with five IFN-stimulated response elements. The SEAP gene is driven by an IFN-β minimal promoter fused to five copies of the NF-κB consensus transcriptional response element and three copies of the c-Rel binding site. Both reporter proteins are readily measurable in the cell culture supernatant when using QUANTI-LUC™ and QUANTI-Blue SEAP detection reagents.
Using the experimental design and data analysis outlined above, optimized assay conditions were obtained. The responsiveness of the human THP-1 Dual cell line was evaluated in an array of assay conditions to obtain sensitive and reproducible results for the activation of IRF and NF-κB reporters. An optimal plating density and differentiation protocol for these cells was established in a 384-well format. All transfer steps are fully automated using high throughput robotic equipment. Briefly, cells are seeded in differentiation medium using a Matrix WellMate fitted with the WellMate Stacker (Thermo Scientific) and incubated at 37° C. with 5% CO2 for 48 h. Following differentiation, cells are washed using a BioTek ELx405 Select CW plate washer and growth medium added with the Matrix WellMate. Programmed control treatments are added to wells using a D300 digital dispenser fitted with T8+ dispense heads (Hewlett Packard) designed to dispense nanoliter quantities of material. Compounds from library plates are added using a pin tool fitted to a Sciclone ALH 3000 Workstation (Caliper Life Sciences) programmed with Maestro v4.4. After treatment, plates are returned to incubators for 24 hours. To measure reporter expression, supernatant is collected using the Sciclone and dispensed into 2 plates: 1) a white 384-well assay plate for Lucia luminescence measurements and 2) a clear-bottom black 384-well assay plate for SEAP absorbance measurements. […]

J774-Dual cytotoxicity = type: cell-based, mouse; details: mouse, J774-Dual cells, read-out: J774 cytotox CC50
Method in brief: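 Orthogonal cross-species screen in mouse J774-Dual cells using 8-point dose-response format. Cytotoxicity measured in-plate by CellTiter-Glo luminescence, giving CC50 alongside EC50 and ISRE:NFκB ratios.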

[3] = system: IRF-Lucia luciferase reporter (ISRE) in THP1-Dual cells; assay: THP1-Dual IRF-Lucia luciferase reporter assay (ISRE activation); type: cell-based, human; details: Homo sapiens, THP1-Dual, read-out: THP1 IRF EC50
Method in brief: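 THP1-Dual cells were differentiated with 5 ng/mL PMA for 48 h at 37° C, washed, then treated with compounds at 10 μM final for 24 h; LPS at 313 ng/mL served as control. ISRE-driven Lucia luciferase in supernatant was read by luminescence.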

[4] = Human Reporter Cell Line, 8-point dose response

Question: Which results are given for Cc1c(C(=O)Nc2ccc3oc(-c4cccnc4)nc3c2)cccc1[N+](=O)[O-] [ND-42]?
Answer: CC50 ([1]; Human Reporter Cell Line THP1): > 25 µM; EC50 ([2]; Human Reporter Cell Line THP1): ~15.6 µM; CC50 (J774-Dual cytotoxicity; Mouse Reporter Cell Line J774): > 25 µM; EC50 ([3]; Human Reporter Cell Line THP1): ~0.00225 µM

Question: Which CC50 ([1]; Human Reporter Cell Line) does the source give for CCOc1cccc(COc2ccc(C(=O)Nc3ccc(N4CCN(C(=O)c5cccs5)CC4)cc3)cn2)c1 [NA-71] here?
Answer: Its CC50 is greater than 10 µM.

Question: And the EC50 [2, 4]?
Answer: The EC50 was 6.57 µM.

Question: And the CC50 (J774-Dual cytotoxicity; Mouse Reporter Cell Line)?
Answer: Its CC50 is greater than 10 µM.

Question: And the EC50 [3, 4]?
Answer: Its EC50 is 3.33 µM.

Question: For CC(Oc1ccc(C(=O)Nc2ccc(N3CCN(C(=O)c4cccs4)CC3)cc2)cc1)c1ccccc1 (stereo not drawn) [NA-22], which CC50 ([1]; Human Reporter Cell Line) is on record?
Answer: The CC50 was greater than 25 µM.

Question: And the EC50 [2, 4]?
Answer: The EC50 was roughly 2.62 µM.

Question: And the CC50 (J774-Dual cytotoxicity; Mouse Reporter Cell Line)?
Answer: The CC50 was greater than 25 µM.

Question: What does the source list for COc1ccc(C(=O)Nc2cc(-c3nc4ccccc4s3)ccc2Cl)cc1[N+](=O)[O-] [ND-89]?
Answer: CC50 ([1]; Human Reporter Cell Line THP1): > 25 µM; EC50 ([2]; Human Reporter Cell Line THP1): 10.6 µM; CC50 (J774-Dual cytotoxicity; Mouse Reporter Cell Line J774): > 25 µM; EC50 ([3]; Human Reporter Cell Line THP1): ~0.496 µM

Question: Which CC50 ([1]; Human Reporter Cell Line THP1) does the source give for Cc1cc2nc(-c3ccc(C)c(NC(=O)c4ccc([N+](=O)[O-])cc4)c3)oc2cc1C [ND-71] here?
Answer: Its CC50 is greater than 25 µM.

Question: What about the EC50 ([2]; Human Reporter Cell Line THP1) of the same compound?
Answer: Its EC50 is 6.94 µM.

Question: What about the CC50 (J774-Dual cytotoxicity; Mouse Reporter Cell Line J774) of the same compound?
Answer: Its CC50 is greater than 25 µM.

Question: And the EC50 ([3]; Human Reporter Cell Line THP1)?
Answer: Its EC50 is 8.49 µM.

Question: What does the source list for Cc1ccc(C(=O)Nc2cc(-c3nc4ccccc4s3)ccc2C)cc1Cl [ND-70]?
Answer: CC50 ([1]; Human Reporter Cell Line THP1): 17.4 µM; EC50 ([2]; Human Reporter Cell Line THP1): ~4.33 µM; CC50 (J774-Dual cytotoxicity; Mouse Reporter Cell Line J774): > 25 µM; EC50 ([3]; Human Reporter Cell Line THP1): 4.76 µM

Question: For Cc1ccc(-c2nc3cc(Cl)ccc3o2)cc1NC(=O)c1cc([N+](=O)[O-])c(C)c([N+](=O)[O-])c1 [ND-61], which CC50 ([1]; Human Reporter Cell Line THP1) is on record?
Answer: The CC50 was greater than 25 µM.

Question: And the EC50 ([2]; Human Reporter Cell Line THP1)?
Answer: Its EC50 is roughly 5.61 µM.

Question: What about the CC50 (J774-Dual cytotoxicity; Mouse Reporter Cell Line J774) of the same compound?
Answer: The CC50 was greater than 25 µM.

Question: For COc1c(Cl)cc(C(=O)Nc2cc(-c3nc4cc(Cl)ccc4o3)ccc2C)cc1Cl [ND-101], which CC50 ([1]; Human Reporter Cell Line THP1) is on record?
Answer: Its CC50 is greater than 25 µM.

Question: What about the EC50 ([2]; Human Reporter Cell Line THP1) of the same compound?
Answer: Its EC50 is roughly 3.75 µM.

Question: And the CC50 (J774-Dual cytotoxicity; Mouse Reporter Cell Line J774)?
Answer: The CC50 was greater than 25 µM.

Question: Which results are given for COc1ccc(C(=O)Nc2ccc(O)c(-c3nc4ccccc4s3)c2)cc1[N+](=O)[O-] [ND-65]?
Answer: CC50 ([1]; Human Reporter Cell Line THP1): > 25 µM; EC50 ([2]; Human Reporter Cell Line THP1): 12 µM; CC50 (J774-Dual cytotoxicity; Mouse Reporter Cell Line J774): > 25 µM; EC50 ([3]; Human Reporter Cell Line THP1): 5.39 µM

Question: What does the source list for Cc1cc2nc(-c3ccc(C)c(NC(=O)c4ccc([N+](=O)[O-])cc4Cl)c3)oc2cc1C [ND-102]?
Answer: EC50 ([2]; Human Reporter Cell Line THP1): 57.9 µM; EC50 ([3]; Human Reporter Cell Line THP1): 24.7 µM

Question: For O=C(Nc1ccc(N2CCN(C(=O)c3cccs3)CC2)cc1)c1ccc2c(c1)OCCO2 [NA-28], which CC50 ([1]; Human Reporter Cell Line) is on record?
Answer: The CC50 was greater than 25 µM.

Question: And the EC50 [2, 4]?
Answer: Its EC50 is 3.02 µM.

Question: What about the CC50 (J774-Dual cytotoxicity; Mouse Reporter Cell Line) of the same compound?
Answer: Its CC50 is greater than 25 µM.

Question: With COc1ccc(C(=O)Nc2cc(-c3nc4ccccc4s3)ccc2C)cc1Br [ND-68] as the compound, how does the CC50 ([1]; Human Reporter Cell Line THP1) read?
Answer: The CC50 was greater than 25 µM.

Question: And the EC50 ([2]; Human Reporter Cell Line THP1)?
Answer: Its EC50 is roughly 9.75 µM.

Question: And the CC50 (J774-Dual cytotoxicity; Mouse Reporter Cell Line J774)?
Answer: Its CC50 is greater than 25 µM.

Question: With COc1ccc(-c2nc3ccccc3s2)cc1NC(=O)c1ccc([N+](=O)[O-])cc1Cl [ND-67] as the compound, how does the CC50 ([1]; Human Reporter Cell Line THP1) read?
Answer: Its CC50 is 8.87 µM.

Question: What about the EC50 ([2]; Human Reporter Cell Line THP1) of the same compound?
Answer: The EC50 was roughly 12.3 µM.

Question: What about the CC50 (J774-Dual cytotoxicity; Mouse Reporter Cell Line J774) of the same compound?
Answer: The CC50 was greater than 25 µM.

Question: And the EC50 ([3]; Human Reporter Cell Line THP1)?
Answer: The EC50 was 0.401 µM.

Question: With Cc1ccc(-c2nc3ccccc3s2)cc1NC(=O)c1ccc(C(F)(F)F)c([N+](=O)[O-])c1 [ND-79] as the compound, how does the CC50 ([1]; Human Reporter Cell Line THP1) read?
Answer: The CC50 was greater than 25 µM.

Question: And the EC50 ([2]; Human Reporter Cell Line THP1)?
Answer: Its EC50 is roughly 11.3 µM.

Question: What about the CC50 (J774-Dual cytotoxicity; Mouse Reporter Cell Line J774) of the same compound?
Answer: The CC50 was greater than 25 µM.

Question: Which CC50 ([1]; Human Reporter Cell Line) does the source give for O=C(Nc1ccc(N2CCN(C(=O)c3cccs3)CC2)cc1)c1ccc(-c2ccccc2)cc1 [NA-19] here?
Answer: The CC50 was 8.49 µM.

Question: And the EC50 [2, 4]?
Answer: Its EC50 is 1.47 µM.

Question: And the CC50 (J774-Dual cytotoxicity; Mouse Reporter Cell Line)?
Answer: Its CC50 is greater than 25 µM.

Question: And the EC50 [3, 4]?
Answer: Its EC50 is 1.02 µM.

Question: With O=C(Nc1ccc(N2CCN(C(=O)c3cccs3)CC2)cc1)c1ccc(OCc2ccc(OC(F)(F)F)cc2)cc1 [NA-34] as the compound, how does the CC50 ([1]; Human Reporter Cell Line) read?
Answer: The CC50 was greater than 25 µM.

Question: And the EC50 [2, 4]?
Answer: Its EC50 is 6.38 µM.

Question: And the CC50 (J774-Dual cytotoxicity; Mouse Reporter Cell Line)?
Answer: The CC50 was greater than 25 µM.

Question: What about the EC50 [3, 4] of the same compound?
Answer: The EC50 was 4.42 µM.

Question: Which results are given for COC(=O)Cc1ccc(NC(=O)c2ccc(NC(=O)c3ccco3)cc2)cc1 [NC-3]?
Answer: CC50 ([1]; Human Reporter Cell Line): > 25 µM; EC50 [2, 4]: ~6.13 µM; CC50 (J774-Dual cytotoxicity; Mouse Reporter Cell Line): > 25 µM; EC50 [3, 4]: 4.13 µM

Question: With COc1c(C)cc(Br)cc1C(=O)Nc1ccc(N2CCN(C(=O)c3cccs3)CC2)cc1 [NA-31] as the compound, how does the CC50 ([1]; Human Reporter Cell Line) read?
Answer: The CC50 was greater than 25 µM.

Question: And the EC50 [2, 4]?
Answer: The EC50 was roughly 3.24 µM.

Question: What about the CC50 (J774-Dual cytotoxicity; Mouse Reporter Cell Line) of the same compound?
Answer: Its CC50 is greater than 25 µM.
